Experimental data taken from patent US4713374A, “Ganglioside derivatives” (priority 1984, dated 1987).

What follows are compounds tested on PC12 cells (assay: Neurite sprouting in PC12 cells). Details: 10^-6 M, serum-free vehicle with 50 ng/ml NGF, third day; controls 21.5.
Type: cell-based
Experimental: The cells are then washed three times in a serum-free vehicle. […] This effect is evaluated by counting the number of cells with neurites at the third day.

Structure (SMILES) | % of the no. of cells with neurites at 3rd day [%]
CCCCCCCCCCCCC/C=C/[C@@H](O)[C@H](CO[C@@H]1O[C@H](CO)[C@@H](O[C@@H]2O[C@H](CO)[C@H](O[C@@H]3O[C@H](CO)[C@H](O)[C@H](O[C@@H]4O[C@H](CO)[C@H](O)[C@H](O)[C@H]4O)[C@H]3NC(C)=O)[C@H](O[C@]3(C(=O)OCC(=O)OCC)C[C@H](O)[C@@H](NC(C)=O)[C@H]([C@H](O)[C@H](O)CO)O3)[C@H]2O)[C@H](O)[C@H]1O)NC(=O)CCCCCCCCCCCCCCCCC [Etoxycarbonylmethylic ester of GM1, Ethoxycarbonylmethyl ester of the ganglioside GM1] | 27.3
CCCCCCCCCCCCC/C=C/[C@@H](O)[C@H](CO[C@@H]1O[C@H](CO)[C@@H](O[C@@H]2O[C@H](CO)[C@H](O[C@@H]3O[C@H](CO)[C@H](O)[C@H](O[C@@H]4O[C@H](CO)[C@H](O)[C@H](O)[C@H]4O)[C@H]3NC(C)=O)[C@H](O[C@]3(C(=O)NCc4ccccc4)C[C@H](O)[C@@H](NC(C)=O)[C@H]([C@H](O)[C@H](O)CO)O3)[C@H]2O)[C@H](O)[C@H]1O)NC(=O)CCCCCCCCCCCCCCCCC [Benzylamide of GM1, Benzylamide of the ganglioside GM1] | 30.8
CCCCCCCCCCCCC/C=C/[C@@H](O)[C@H](CO[C@@H]1O[C@H](CO)[C@@H](O[C@@H]2O[C@H](CO)[C@H](O[C@@H]3O[C@H](CO)[C@H](O)[C@H](O[C@@H]4O[C@H](CO)[C@H](O)[C@H](O)[C@H]4O)[C@H]3NC(C)=O)[C@H](O[C@]3(C(=O)OCC)C[C@H](O)[C@@H](NC(C)=O)[C@H]([C@H](O)[C@H](O)CO)O3)[C@H]2O)[C@H](O)[C@H]1O)NC(=O)CCCCCCCCCCCCCCCCC [Ethylic ester of GM1, Ethyl ester of the ganglioside GM1] | 37.1
CCCCCCCCCCCCC/C=C/[C@@H](O)[C@H](CO[C@@H]1O[C@H](CO)[C@@H](O[C@@H]2O[C@H](CO)[C@H](O[C@@H]3O[C@H](CO)[C@H](O)[C@H](O[C@@H]4O[C@H](CO)[C@H](O)[C@H](O)[C@H]4O)[C@H]3NC(C)=O)[C@H](O[C@]3(C(=O)NCC)C[C@H](O)[C@@H](NC(C)=O)[C@H]([C@H](O)[C@H](O)CO)O3)[C@H]2O)[C@H](O)[C@H]1O)NC(=O)CCCCCCCCCCCCCCCCC [Ethylamide of GM1, Ethylamide of the ganglioside GM1] | 32.2
C=CCOC(=O)[C@@]1(O[C@@H]2[C@@H](O)[C@H](O[C@H]3[C@H](O)[C@@H](O)[C@H](OC[C@H](NC(=O)CCCCCCCCCCCCCCCCC)[C@H](O)/C=C/CCCCCCCCCCCCC)O[C@@H]3CO)O[C@H](CO)[C@@H]2O[C@@H]2O[C@H](CO)[C@H](O)[C@H](O[C@@H]3O[C@H](CO)[C@H](O)[C@H](O)[C@H]3O)[C@H]2NC(C)=O)C[C@H](O)[C@@H](NC(C)=O)[C@H]([C@H](O)[C@H](O)CO)O1 [Allylic ester of GM1, Allyl ester of the ganglioside GM1] | 31.5
CCCCCCCCCCCCC/C=C/[C@@H](O)[C@H](CO[C@@H]1O[C@H](CO)[C@@H](O[C@@H]2O[C@H](CO)[C@H](O[C@@H]3O[C@H](CO)[C@H](O)[C@H](O[C@@H]4O[C@H](CO)[C@H](O)[C@H](O)[C@H]4O)[C@H]3NC(C)=O)[C@H](O[C@]3(C(=O)NCCN(C)C)C[C@H](O)[C@@H](NC(C)=O)[C@H]([C@H](O)[C@H](O)CO)O3)[C@H]2O)[C@H](O)[C@H]1O)NC(=O)CCCCCCCCCCCCCCCCC [Dimethylaminoethylamide of GM1, Dimethylaminoethylamide of the ganglioside GM1] | 34.8
CCCCCCCCCCCCC/C=C/[C@@H](O)[C@H](CO[C@@H]1O[C@H](CO)[C@@H](O[C@@H]2O[C@H](CO)[C@H](O[C@@H]3O[C@H](CO)[C@H](O)[C@H](O[C@@H]4O[C@H](CO)[C@H](O)[C@H](O)[C@H]4O)[C@H]3NC(C)=O)[C@H](O[C@]3(C(=O)OC(C)(C)C)C[C@H](O)[C@@H](NC(C)=O)[C@H]([C@H](O)[C@H](O)CO)O3)[C@H]2O)[C@H](O)[C@H]1O)NC(=O)CCCCCCCCCCCCCCCCC [Tertiarbutylic ester of GM1, Tertiary butyl ester of the ganglioside GM1] | 32.3
CCCCCCCCCCCCC/C=C/[C@@H](O)[C@H](CO[C@@H]1O[C@H](CO)[C@@H](O[C@@H]2O[C@H](CO)[C@H](O[C@@H]3O[C@H](CO)[C@H](O)[C@H](O[C@@H]4O[C@H](CO)[C@H](O)[C@H](O)[C@H]4O)[C@H]3NC(C)=O)[C@H](O[C@]3(C(=O)N(CC)CC)C[C@H](O)[C@@H](NC(C)=O)[C@H]([C@H](O)[C@H](O)CO)O3)[C@H]2O)[C@H](O)[C@H]1O)NC(=O)CCCCCCCCCCCCCCCCC [Diethylamide of GM1, Diethylamide of the ganglioside GM1] | 28.5
CCCCCCCCCCCCC/C=C/[C@@H](OC(C)=O)[C@H](CO[C@@H]1O[C@H](COC(C)=O)[C@@H](O[C@@H]2O[C@H](COC(C)=O)[C@H](O[C@@H]3O[C@H](COC(C)=O)[C@H](OC(C)=O)[C@H](O[C@@H]4O[C@H](COC(C)=O)[C@H](OC(C)=O)[C@H](OC(C)=O)[C@H]4OC(C)=O)[C@H]3NC(C)=O)[C@H](O[C@]3(C(N)=O)C[C@H](OC(C)=O)[C@@H](NC(C)=O)[C@H]([C@H](OC(C)=O)[C@@H](COC(C)=O)OC(C)=O)O3)[C@H]2OC(C)=O)[C@H](OC(C)=O)[C@H]1OC(C)=O)NC(=O)CCCCCCCCCCCCCCCCC [Amide of peracetylated GM1, Peracetylated derivative of the amide of the ganglioside GM1] | 31.4
CCCCCCCCCCCCC/C=C/[C@@H](O)[C@H](CO[C@@H]1O[C@H](CO)[C@@H](O[C@@H]2O[C@H](CO)[C@H](O[C@@H]3O[C@H](CO)[C@H](O)[C@H](O[C@@H]4O[C@H](CO)[C@H](O)[C@H](O)[C@H]4O)[C@H]3NC(C)=O)[C@H](O[C@]3(C(=O)NCCCCCCO)C[C@H](O)[C@@H](NC(C)=O)[C@H]([C@H](O)[C@H](O)CO)O3)[C@H]2O)[C@H](O)[C@H]1O)NC(=O)CCCCCCCCCCCCCCCCC [6-hydroxyhexyl-1-amide of GM1, 6-hydroxyhexyl-1-amide of the ganglioside GM1] | 36.4
CCCCCCCCCCCCC/C=C/[C@@H](O)[C@H](CO[C@@H]1O[C@H](CO)[C@@H](O[C@@H]2O[C@H](CO)[C@H](O[C@@H]3O[C@H](CO)[C@H](O)[C@H](O[C@@H]4O[C@H](CO)[C@H](O)[C@H](O)[C@H]4O)[C@H]3NC(C)=O)[C@H](O[C@]3(C(=O)NCCCN(C)C)C[C@H](O)[C@@H](NC(C)=O)[C@H]([C@H](O)[C@H](O)CO)O3)[C@H]2O)[C@H](O)[C@H]1O)NC(=O)CCCCCCCCCCCCCCCCC [3-dimethylaminopropyl-1-amide of GM1, 3-dimethylaminopropyl-1-amide of the ganglioside GM1] | 37.3
CCCCCCCCCCCCC/C=C/[C@@H](O)[C@H](CO[C@@H]1O[C@H](CO)[C@@H](O[C@@H]2O[C@H](CO)[C@H](O[C@@H]3O[C@H](CO)[C@H](O)[C@H](O[C@@H]4O[C@H](CO)[C@H](O)[C@H](O)[C@H]4O)[C@H]3NC(C)=O)[C@H](O[C@]3(C(=O)OC(C)C)C[C@H](O)[C@@H](NC(C)=O)[C@H]([C@H](O)[C@H](O)CO)O3)[C@H]2O)[C@H](O)[C@H]1O)NC(=O)CCCCCCCCCCCCCCCCC [Isopropylic ester of GM1, Isopropyl ester of the ganglioside GM1] | 37.0
CCCCCCCCCCCCC/C=C/[C@@H](O)[C@H](CO[C@@H]1O[C@H](CO)[C@@H](O[C@@H]2O[C@H](CO)[C@H](O[C@@H]3O[C@H](CO)[C@H](O)[C@H](O[C@@H]4O[C@H](CO)[C@H](O)[C@H](O)[C@H]4O)[C@H]3NC(C)=O)[C@H](O[C@]3(C(=O)NCCO)C[C@H](O)[C@@H](NC(C)=O)[C@H]([C@H](O)[C@H](O)CO)O3)[C@H]2O)[C@H](O)[C@H]1O)NC(=O)CCCCCCCCCCCCCCCCC [Ethanolamide of GM1, Ethanolamide of the ganglioside GM1] | 41.2
CCCCCCCCCCCCC/C=C/[C@@H](OC(C)=O)[C@H](CO[C@@H]1O[C@H](COC(C)=O)[C@@H](O[C@@H]2O[C@H](COC(C)=O)[C@H](O[C@@H]3O[C@H](COC(C)=O)[C@H](OC(C)=O)[C@H](O[C@@H]4O[C@H](COC(C)=O)[C@H](OC(C)=O)[C@H](OC(C)=O)[C@H]4OC(C)=O)[C@H]3NC(C)=O)[C@H](O[C@]3(C(=O)OC)C[C@H](OC(C)=O)[C@@H](NC(C)=O)[C@H]([C@H](OC(C)=O)[C@@H](COC(C)=O)OC(C)=O)O3)[C@H]2OC(C)=O)[C@H](OC(C)=O)[C@H]1OC(C)=O)NC(=O)CCCCCCCCCCCCCCCCC [Methylic ester of peracetylated GM1, Peracetylated derivative of the methyl ester of the ganglioside GM1] | 29.4
CCCCCCCCCCCCC/C=C/[C@@H](O)[C@H](CO[C@@H]1O[C@H](CO)[C@@H](O[C@@H]2O[C@H](CO)[C@H](O[C@@H]3O[C@H](CO)[C@H](O)[C@H](O[C@@H]4O[C@H](CO)[C@H](O)[C@H](O)[C@H]4O)[C@H]3NC(C)=O)[C@H](O[C@]3(C(=O)OCc4ccccc4)C[C@H](O)[C@@H](NC(C)=O)[C@H]([C@H](O)[C@H](O)CO)O3)[C@H]2O)[C@H](O)[C@H]1O)NC(=O)CCCCCCCCCCCCCCCCC [Benzylic ester of GM1, Benzyl ester of the ganglioside GM1] | 28.3
CCCCCCCCCCCCC/C=C/[C@@H](O)[C@H](CO[C@@H]1O[C@H](CO)[C@@H](O[C@@H]2O[C@H](CO)[C@H](O[C@@H]3O[C@H](CO)[C@H](O)[C@H](O[C@@H]4O[C@H](CO)[C@H](O)[C@H](O)[C@H]4O)[C@H]3NC(C)=O)[C@H](O[C@]3(C(=O)N(C)CC)C[C@H](O)[C@@H](NC(C)=O)[C@H]([C@H](O)[C@H](O)CO)O3)[C@H]2O)[C@H](O)[C@H]1O)NC(=O)CCCCCCCCCCCCCCCCC [Ethylmethylamide of GM1, Ethylmethylamide of the ganglioside GM1] | 35.3
